Data on 98 compounds can be found in ChEMBL document CHEMBL1142990, “Self-organizing maps for identification of new inhibitors of P-glycoprotein” (J Med Chem, 2007).

ATP-dependent translocase ABCB1, sequence (P08183 whole entry): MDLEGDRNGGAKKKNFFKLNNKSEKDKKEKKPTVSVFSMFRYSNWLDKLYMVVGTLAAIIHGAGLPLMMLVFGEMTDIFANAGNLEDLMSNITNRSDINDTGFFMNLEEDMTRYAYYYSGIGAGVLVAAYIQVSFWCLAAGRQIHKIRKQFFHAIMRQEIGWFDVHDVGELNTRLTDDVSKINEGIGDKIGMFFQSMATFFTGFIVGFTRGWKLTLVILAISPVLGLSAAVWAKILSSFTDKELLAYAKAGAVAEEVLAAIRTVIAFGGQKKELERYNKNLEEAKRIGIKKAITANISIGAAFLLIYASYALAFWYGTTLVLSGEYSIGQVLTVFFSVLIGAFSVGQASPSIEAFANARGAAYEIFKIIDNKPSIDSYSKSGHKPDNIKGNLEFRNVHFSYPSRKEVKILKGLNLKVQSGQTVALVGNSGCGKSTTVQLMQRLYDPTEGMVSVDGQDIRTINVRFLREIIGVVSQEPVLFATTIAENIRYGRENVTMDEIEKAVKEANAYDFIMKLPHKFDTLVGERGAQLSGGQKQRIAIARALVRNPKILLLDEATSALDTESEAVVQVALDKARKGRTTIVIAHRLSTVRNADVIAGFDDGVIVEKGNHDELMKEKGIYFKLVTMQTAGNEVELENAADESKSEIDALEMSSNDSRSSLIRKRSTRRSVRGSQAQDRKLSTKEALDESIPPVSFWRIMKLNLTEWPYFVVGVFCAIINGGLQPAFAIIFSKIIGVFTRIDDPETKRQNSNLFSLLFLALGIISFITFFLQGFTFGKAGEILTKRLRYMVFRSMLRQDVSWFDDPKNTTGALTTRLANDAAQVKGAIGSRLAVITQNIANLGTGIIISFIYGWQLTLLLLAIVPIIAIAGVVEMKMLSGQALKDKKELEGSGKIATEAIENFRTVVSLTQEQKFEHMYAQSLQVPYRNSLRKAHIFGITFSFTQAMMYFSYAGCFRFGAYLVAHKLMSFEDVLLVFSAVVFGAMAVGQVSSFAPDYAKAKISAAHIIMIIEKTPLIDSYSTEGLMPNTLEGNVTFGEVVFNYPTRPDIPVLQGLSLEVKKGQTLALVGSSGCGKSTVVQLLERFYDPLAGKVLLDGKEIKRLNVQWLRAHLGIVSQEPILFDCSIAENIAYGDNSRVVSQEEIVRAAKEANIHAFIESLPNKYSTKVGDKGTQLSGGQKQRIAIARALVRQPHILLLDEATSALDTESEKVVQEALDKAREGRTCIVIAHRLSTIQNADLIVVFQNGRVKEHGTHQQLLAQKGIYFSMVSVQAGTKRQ

The experiment addresses ATP-dependent translocase ABCB1 (Homo sapiens, UniProt P08183). As to the kind of experiment: Inhibition of P-glycoprotein expressed in MDR CCRF vcr1000 cells by daunorubicin efflux assay.
Regarding `O=C(CCc1ccccc1)c1ccccc1OCC(O)CN(C(c1ccccc1)c1ccccc1)C(c1ccccc1)c1ccccc1` (stereo not drawn), the EC50 (commonly the concentration at which the effect is half-maximal) was 10400 nM. Compound `O=C(CCc1ccccc1)c1ccccc1OCC(O)CN1CCOCC1` (stereo not drawn) displayed an EC50 of 3650 nM. On to `CC(C)C(NCC(O)COc1ccccc1C(=O)CCc1ccccc1)c1ccccc1` (stereo not drawn), for which the EC50 worked out at 210 nM. Consider `COC(CCc1ccccc1)c1ccccc1OCC(O)CN(C(C)C)C(C)C` (stereo not drawn), for which a half-maximal effect (EC50) was put at 658 nM. Turning to `COc1cccc(/C=N/NC(=O)C(=O)NC(C)(C)C)c1O`, it took 102000 nM to reach a half-maximal effect (EC50).

In turn, `CN(C)CC(O)COc1ccccc1C(=O)CCc1ccccc1` (stereo not drawn) yielded an EC50 of 2480 nM.

The compound `CCc1ccc(N2C(=O)c3ccccc3NC2c2ccc(OCc3ccccc3)cc2)cc1` (stereo not drawn) came in with an EC50 of over 100000 nM. `OC(COc1ccccc1C(O)CCc1ccccc1)CN1CCCCC1` (stereo not drawn): a half-maximal response (EC50) required 901 nM. The compound `CCCNCC(O)COc1ccc(O)cc1C(=O)CCc1ccccc1` (stereo not drawn) [5-HYDROXY PROPAFENONE] showed a 50% effective concentration (EC50) of 3020 nM.

In the case of `CC(=O)c1ccccc1OCC(O)CN1CCOCC1` (stereo not drawn), it took 207000 nM to reach a half-maximal effect (EC50). Consider `O=C1c2cccc(OCC(O)CN3CCCCC3)c2CC1Cc1ccccc1` (stereo not drawn), for which a half-maximal response (EC50) required 142 nM.

As to `Cc1ccc(CCC(=O)c2ccccc2OCC(O)CN2CCN(c3ccccc3C)CC2)cc1` (stereo not drawn), the EC50 turned out to be 18 nM. Take `CC(C)N(CC(O)COc1ccc(C(=O)CCc2ccccc2)cc1)C(C)C` (stereo not drawn): the EC50 stood at 915 nM. With `O=C(CCc1ccccc1)c1ccc(OCC(O)CNCCC(c2ccccc2)c2ccccc2)cc1` (stereo not drawn), the EC50 worked out at 505 nM. In turn, `O=C(CCc1ccccc1)c1ccccc1OCC(O)CNC1CCCCC1` (stereo not drawn) displayed an EC50 of 341 nM. As to `Cc1ccc(N2CCN(CC(O)COc3cccc4c3C(=O)C(Cc3ccccc3)C4)CC2)c(C)c1` (stereo not drawn), the EC50 was 167 nM.

Compound `O=C1CC(CN2CCCCC2)Oc2ccccc21` (stereo not drawn) came in with an EC50 of 176000 nM. For the compound `O=C(CCc1ccccc1)c1ccccc1OCCCCN1CCN(c2ccc(F)cc2)CC1`, the EC50 came to 192 nM. `O=C(CCc1cccc2ccccc12)c1ccccc1OCC(O)CN1CCCCC1` (stereo not drawn): the midpoint of the response, the EC50, lay at 172 nM. For `CC(=O)c1c(C)cc(C)c(CSc2nc3ccc(NC(=O)c4ccc(C(C)(C)C)cc4)cc3s2)c1C`, a half-maximal response (EC50) required 280 nM.

Compound `O=C(N/N=C/c1c(F)cccc1Cl)C(=O)N1CCCCCC1` gave an EC50 of 159000 nM. The value for `c1ccc(CCc2c(CCN3CCCCC3)oc3ccccc23)cc1` was 980 nM; that for `O=C(C1Oc2ccccc2C1CCc1ccccc1)N1CCCCC1` (stereo not drawn) was 6660 nM.

`Cc1cccc(N2CCN(CC(O)COc3cccc(C(=O)CCc4ccccc4)c3)CC2)c1C` (stereo not drawn) had an EC50 of 137 nM.

Compound `Cn1cc(I)c(C(=O)NNC(=O)c2ccnn2C)n1` returned an EC50 of over 500000 nM.

As to `COc1ccc(CC(O)CO)cc1OC` (stereo not drawn), the EC50 was over 500000 nM.

Turning to `CC(=O)c1cccc(OCC(O)CN2CCN(c3ccccc3C)CC2)c1` (stereo not drawn), the EC50 is 537 nM.

In the case of `COc1ccc(C(=O)CCc2ccccc2)c(OCC(O)CN2CCN(c3ccccc3C)CC2)c1` (stereo not drawn), the midpoint of the response, the EC50, lay at 296 nM. The value for `O=C(CCc1cccc2ccccc12)c1ccccc1OCC(O)CN1CCOCC1` (stereo not drawn) was 730 nM; that for `O=C(CCc1ccccc1)c1ccccc1OCCCCCCCN1CCCCC1` was 179 nM; that for `CC1Cc2cccc(OCC(O)CN3CCCCC3)c2C1=O` (stereo not drawn) was 9680 nM. Turning to `O=C(CCc1ccccc1)c1cc(O)ccc1OCC(O)CN1CCCCC1` (stereo not drawn), the EC50 was 1730 nM. Compound `CC(C)(C)C(NCC(O)COc1ccccc1C(=O)CCc1ccccc1)c1ccccc1` (stereo not drawn) came in with an EC50 of 292 nM.

Compound `COC(CCc1ccccc1)c1ccccc1OCC(O)CN1CCCCC1` (stereo not drawn) gave an EC50 of 173 nM. In turn, `CC(C)OC(CCc1ccccc1)c1ccccc1OCC(O)CN1CCCCC1` (stereo not drawn) registered an EC50 of 460 nM. Turning to `O=C(CCc1cccc2ccccc12)c1ccccc1OCC(O)CNCCC(c1ccccc1)c1ccccc1` (stereo not drawn), the EC50 was 723 nM. `CC(=O)c1c(C)cc(C)c(CSc2nc3ccc(NC(=O)c4cccc5ccccc45)cc3s2)c1C` came in with an EC50 of 110 nM.

On to `COc1ccc(C2Nc3ccccc3C(=O)N2c2ccc(NC(C)=O)cc2)cc1` (stereo not drawn), for which the EC50 is 20900 nM.

On to `CC(C)N(CC(O)COc1ccccc1C(=O)CCc1cccc2ccccc12)C(C)C` (stereo not drawn), for which the EC50 came to 465 nM. `O=C(CCc1ccccc1)c1ccccc1OCC(O)CNc1ccccc1` (stereo not drawn) yielded an EC50 of 6470 nM.

The compound `O=C(CCc1ccccc1)c1cccc(OCC(O)CNCCC(c2ccccc2)c2ccccc2)c1` (stereo not drawn) gave an EC50 of 190 nM. For `CC(=O)c1ccc(OCC(O)CN2CCN(c3ccccc3C)CC2)cc1` (stereo not drawn), the response was half-maximal at 1550 nM (EC50). The value for `O=C1c2c(cccc2OCC(O)CN2CCCCC2)CC1Cc1ccccc1` (stereo not drawn) was 212 nM; that for `CCC(C)c1ccc(N2C(=O)c3ccccc3NC2c2ccc(OC)cc2)cc1` (stereo not drawn) was 760 nM; that for `O=C(CCc1ccccc1)c1cccc(OCC(O)CN2CCOCC2)c1` (stereo not drawn) was 3480 nM. `O=C(CCc1ccccc1)c1ccccc1OCCCCCCCCN1CCCCC1` returned a concentration for a half-maximal effect (EC50) of 137 nM.

In the case of `O=C(CCc1ccccc1)c1ccccc1OCC(O)CN1CCN(Cc2ccccc2)CC1` (stereo not drawn), it took 659 nM to reach a half-maximal effect (EC50).

`CC(C)N(CC(O)COc1ccccc1C(=O)CCc1ccccc1)C(C)C` (stereo not drawn) showed an EC50 of 377 nM. As to `COc1cccc(N2CCN(CC(O)COc3ccccc3C(=O)CCc3ccccc3)CC2)c1` (stereo not drawn), a half-maximal response (EC50) required 678 nM. Under `CCc1ccc(N2C(=O)c3ccccc3NC2c2ccc(OCC(C)C)cc2)cc1` (stereo not drawn) stands 1210 nM; under `CC(=O)c1cccc(OCC(O)CN2CCN(c3ccc(F)cc3)CC2)c1` (stereo not drawn), 10100 nM. Regarding `O=C(CCc1ccccc1)c1ccccc1OCCCCN1CCOCC1`, a half-maximal response (EC50) required 1010 nM. Under `COc1ccccc1N1CCN(CC(O)COc2ccccc2C(=O)CCc2ccccc2)CC1` (stereo not drawn) stands 230 nM.

The compound `COc1ccc(OCC(O)CN2CCN(c3ccccc3C)CC2)c(C(C)=O)c1` (stereo not drawn) gave an EC50 of 859 nM.

`Cc1cc(C)n(-c2nnc(N/N=C\c3cccnc3)nn2)n1` registered an EC50 of 158000 nM. In the case of `OC(COc1ccccc1C(O)CCc1ccccc1)CN1CCOCC1` (stereo not drawn), it took 9540 nM to reach a half-maximal effect (EC50). Take `C=CCn1c(SCCCC)nc2c(c1=O)C1(CCCC1)Cc1ccccc1-2`: the EC50 stood at 3500 nM. `O=C(CCc1ccccc1)c1ccccc1OCC(O)CNc1ccc(C(F)(F)F)cc1` (stereo not drawn) returned an EC50 of 8490 nM. In turn, `Cc1ccccc1N1CCN(CC(O)COc2ccccc2C(=O)CCc2ccc(Cl)cc2)CC1` (stereo not drawn) yielded an EC50 of 19 nM. The value for `CC(=O)c1ccc(OCC(O)CN2CCCCC2)cc1` (stereo not drawn) was 49000 nM; that for `Cc1ccc(OCC(O)CN2CCN(c3ccccc3C)CC2)c(C(=O)CCc2ccccc2)c1` (stereo not drawn) was 26 nM; that for `CC(=O)c1ccccc1OCC(O)CN1CCC(Cc2ccccc2)CC1` (stereo not drawn) was 357 nM.

For the compound `O=C(CCc1ccccc1)c1ccccc1OCC(O)CNC(c1ccccc1)C1CCCCC1` (stereo not drawn), it took 145 nM to reach a half-maximal effect (EC50). Regarding `CCN(CC)CC(O)COc1ccccc1C(=O)c1ccccc1` (stereo not drawn), the EC50 was found to be 2320 nM.

For `O=C(CCc1ccccc1)c1ccccc1OCC(O)CN1CCCCC1` (stereo not drawn), the EC50 came to 599 nM. `COC(CCc1ccccc1)c1ccccc1OCC(O)CNCCC(c1ccccc1)c1ccccc1` (stereo not drawn): the EC50 came to 752 nM. Compound `CCC(=O)c1ccccc1OCC(O)CN1CCC(O)(c2ccccc2)CC1` (stereo not drawn) had an EC50 of 299 nM. Take `O=C(CCc1ccccc1)c1ccccc1OCCCN1CCCCC1`: the EC50 was 651 nM. Turning to `O=C(CCc1ccccc1)c1cccc(OCC(O)CN2CCCCC2)c1` (stereo not drawn), the EC50 came to 424 nM. With `O=C(CCc1ccccc1)c1ccccc1OCC(O)CN1CCN(C(=O)c2ccccc2)CC1` (stereo not drawn), the response was half-maximal at 130 nM (EC50). On to `O=C(CCc1ccccc1)c1cc(OCc2ccccc2)ccc1OCC(O)CN1CCCCC1` (stereo not drawn), for which the EC50 amounted to 172 nM. As to `Cc1ccccc1N1CCN(CC(O)COc2ccc(Cl)cc2C(=O)CCc2ccccc2)CC1` (stereo not drawn), the midpoint of the response, the EC50, lay at 59 nM.

On to `CCC(=O)c1ccccc1OCC(O)CN1CCCCC1` (stereo not drawn), for which the EC50 was 14300 nM. As to `CCCN(C)CC(O)COc1ccccc1C(=O)CCc1ccccc1` (stereo not drawn), the EC50 came out at 416 nM. In turn, `CCOCCOC(=O)c1ccc(N)cc1` yielded an EC50 of 312000 nM. `CC(C)(C)c1ccc(N2C(=O)c3ccccc3NC2c2ccc3c(c2)OCO3)cc1` (stereo not drawn) displayed an EC50 of 730 nM. In the case of `Cc1cccc(N2CCN(CC(O)COc3ccc(C(=O)CCc4ccccc4)cc3)CC2)c1C` (stereo not drawn), a half-maximal response (EC50) required 227 nM.

For `CCCCOc1ccc(C(=O)Nc2ccc3nc(SCc4c(C)cc(C)c(C(C)=O)c4C)sc3c2)cc1`, the EC50 was determined as 97 nM. Compound `O=C(CCc1ccccc1)c1ccccc1OCCN1CCCCC1` displayed an EC50 of 1450 nM.

Turning to `O=C(CCc1ccccc1)c1ccc(OCC(O)CN2CCOCC2)cc1` (stereo not drawn), the EC50 came out at 6880 nM. The value for `Clc1ccccc1-c1nc(N2CCCC2)c2ccccc2n1` was 5940 nM. As for `O=C(CCc1ccccc1)c1ccccc1OCCCCCN1CCCCC1`, the EC50 was 242 nM.

`COc1ccc(C2Nc3ccccc3C(=O)N2c2ccc(Oc3ccccc3)cc2)cc1` (stereo not drawn) showed an EC50 of 1000 nM. The compound `OC(COc1ccccc1C(O)CCc1ccccc1)CN1CCN(c2ccc(F)cc2)CC1` (stereo not drawn) gave an EC50 of 671 nM. Under `CC(=O)c1ccc(OCC(O)CN2CCN(c3ccc(F)cc3)CC2)cc1` (stereo not drawn) stands 11900 nM. `Cc1ccccc1N1CCN(CC(O)COc2ccccc2C(=O)CCc2ccc(N(C)C)cc2)CC1` (stereo not drawn) yielded an EC50 of 13 nM.

For `CC(=O)c1cccc(OCC(=O)CN2CCN(c3cccc(C)c3C)CC2)c1`, the EC50 was 379 nM. `O=C(c1ccccc1)c1ccccc1OCC(O)CN1CCN(c2ccc(F)cc2)CC1` (stereo not drawn) gave an EC50 of 147 nM. The value for `O=C(CCc1ccccc1)c1ccccc1OCC(O)CNc1ccc([N+](=O)[O-])cc1` (stereo not drawn) was 2570 nM.

In turn, `c1ccc(CCC2c3ccccc3OC2CN2CCCCC2)cc1` (stereo not drawn) registered an EC50 of 1620 nM.

The compound `COC(CCc1ccccc1)c1ccccc1OCC(O)CN1CCOCC1` (stereo not drawn) displayed an EC50 of 1810 nM. As to `CCCNC[C@@H](O)c1oc2ccccc2c1CCc1ccccc1`, the EC50 amounted to 1100 nM.

Consider `CC(=O)c1cc(C)ccc1OCC(O)CN1CCCCC1` (stereo not drawn), for which the response was half-maximal at 5470 nM (EC50). `CC(C)(C)c1ccc(CSc2nc3ccc(NC(=O)c4ccc(C(C)(C)C)cc4)cc3s2)cc1` showed an EC50 of over 50000 nM. Compound `CCN(CC)CC(O)COc1ccccc1C(=O)CCc1ccccc1` (stereo not drawn) registered a 50% effective concentration (EC50) of 907 nM. `CC(=O)OC(COc1ccccc1C(=O)CCc1ccccc1)CN1CCCCC1` (stereo not drawn) gave an EC50 of 336 nM. The value for `CC(C)(C)c1ccc(C(=O)Nc2ccc3nc(SCc4cccc5ccccc45)sc3c2)cc1` was over 20000 nM; that for `O=C(CCc1ccccc1)c1ccccc1OCC(O)CN1CCC(O)(c2ccccc2)CC1` (stereo not drawn) was 58 nM.
